Laboratory results reported in publication PMC8770581 (ChemMedChem, 2021).
“Also recorded” adds a separate entry of the source. Like-named read-outs stand apart in the source and are kept apart here.

How the values were obtained:
Aβ fibrils [1] = target: T1, Aβ fibrils (Homo sapiens, UniProt P05067); assay: Fluorescent properties of ligand-Aβ fibril complex; assay type: physicochemical
Aβ (1–40) fibrils = Aβ (1–40) fibrils (Homo sapiens, UniProt P05067); assay: Aβ fibril/ligand saturation binding assay
Chain of Aβ (1–40) fibrils (P05067 672-711): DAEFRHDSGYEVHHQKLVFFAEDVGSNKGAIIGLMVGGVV

α-syn fibrils [2] = target: T2, α-syn fibrils (Homo sapiens, UniProt P37840); assay: α-Synuclein fibril/ligand saturation binding assay; details: for Kd: Kd α-syn, mean ± SD (n = 3); for Selectivity α-syn v/s Aβ: from Kd Aβ and Kd α-syn; for selectivity for α-syn fibrils compared with amyloid-β (Aβ) and tau fibrils: abstract
[3] = Absorption/emission maxima and fluorescence quantum yield of free ligand in PBS; assay type: physicochemical; details: for Absmax / Emmax: free ligand in PBS
α-syn fibrils [4] = target: T2, α-syn fibrils; assay: Fluorescent properties of ligand-α-syn fibril complex; assay type: physicochemical
[5] = target: tau fibrils (Tau-441, 2N4R) (Homo sapiens, UniProt P10636); assay: Tau fibril/ligand saturation binding assay; details: for α-syn versus tau binding selectivity: from Kd tau and Kd α-syn
Chain of tau fibrils (Tau-441, 2N4R) (P10636 1-441 isoform P10636-8): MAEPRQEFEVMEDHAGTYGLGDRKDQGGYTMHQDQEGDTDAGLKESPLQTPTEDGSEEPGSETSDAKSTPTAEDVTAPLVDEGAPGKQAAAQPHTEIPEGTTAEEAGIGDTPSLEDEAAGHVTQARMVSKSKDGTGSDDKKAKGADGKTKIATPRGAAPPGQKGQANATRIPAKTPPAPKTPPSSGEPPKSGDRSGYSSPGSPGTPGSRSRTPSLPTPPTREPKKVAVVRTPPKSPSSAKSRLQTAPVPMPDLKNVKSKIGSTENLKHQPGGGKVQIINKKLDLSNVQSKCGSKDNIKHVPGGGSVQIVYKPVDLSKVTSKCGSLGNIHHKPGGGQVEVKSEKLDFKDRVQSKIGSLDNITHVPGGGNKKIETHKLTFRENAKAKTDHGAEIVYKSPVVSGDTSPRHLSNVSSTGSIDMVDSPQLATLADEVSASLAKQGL

[6] = target: Aβ plaques in human AD brain tissue (Homo sapiens, UniProt P05067); assay: Fluorescent staining of human AD brain tissue sections; details: cortical sections, co-stained with antibody 4G8
Chain of Aβ plaques in human AD brain tissue (P05067 672-711 limits assumed): as the sequence (P05067 672-711) above

Aβ fibrils [7] = target: T1, Aβ fibrils; details: read-out: Kd Aβ; fibril saturation binding; cited from earlier work
α-syn fibrils [8] = target: T2, α-syn fibrils; details: read-out: Kd α-syn; fibril saturation binding; cited from earlier work
[9] = Table 1, synthetic α-syn fibrils 2.5 μM, 1 hour
[10] = Table 3 and text, α-syn fibrils, saturation binding

T1 sequence (P05067 672-711): as above

Compound	Absmax Ligand + Aβ (Aβ fibrils [1])	Emmax Ligand + Aβ (Aβ fibrils [1])	Fluorescence quantum yield Ligand + Aβ (Aβ fibrils [1])	Kd (Aβ (1–40) fibrils) [nM]	Kd (α-syn fibrils [2]; [9]) [nM]	Kd (α-syn fibrils [2]; [10]) [nM]	Selectivity α-syn v/s Aβ (α-syn fibrils [2]) [x]	Fluorescence quantum yield Free ligand [3]	Absmax [3]	Emmax [3]	Absmax Ligand + α-syn (α-syn fibrils [4])	Emmax Ligand + α-syn (α-syn fibrils [4])	Fluorescence quantum yield Ligand + α-syn (α-syn fibrils [4])	Kd [5] [nM]	α-syn versus tau binding selectivity [5] [x]	selectivity for α-syn fibrils compared with amyloid-β (Aβ) and tau fibrils (α-syn fibrils [2])	labeling of Aβ pathology in AD brain sections [6]	Kd (Aβ fibrils [7]) [nM]	Kd (α-syn fibrils [8]) [nM]
COc1cc(/C=C/C=C2\CCc3ccccc3C2=O)ccc1O [compound 23, (E)-2-((E)-3-(4-Hydroxy-3-methoxyphenyl)allylidene)-3,4-dihydronaphthalen-1(2H)-one]	454	584	0.1890	144 ± 13	85.1 ± 13.4	85.1 ± 13.4	1.7	0.0051	401	549	447	587	0.0763						
COc1cc(/C=C/C=C2\Cc3ccccc3C2=O)ccc1O [compound 8, (E)-2-((E)-3-(4-Hydroxy-3-methoxyphenyl)allylidene)-2,3-dihydro-1H-inden-1-one]	441	579	0.1363	140 ± 4.2	9 ± 0.5	9 ± 0.5	15.6	0.0079	405	542	446	585	0.078	388 ± 38.2	43	greater than 10 x	mostly dense core Aβ plaques in the ligand channel (column II) but not the finer aggregates composed of diffuse plaques; also recorded: highlights mostly dense core Aβ plaques		
COc1cc(-c2ccc(/C=C3/Cc4ccccc4C3=O)s2)ccc1O [compound 39, (Z)-2-((5-(4-Hydroxy-3-methoxyphenyl)thiophen-2-yl)methylene)-2,3-dihydro-1H-inden-1-one]	448	586	0.1377	257 ± 20.3	93.1 ± 13.8	93.1 ± 13.8	2.8	0.0031	403	575	439	589	0.0435						
COc1cc(-c2ccc(/C=C/C=C3\Cc4ccccc4C3=O)cc2)ccc1O [compound 29, (E)-2-((E)-3-(4'-Hydroxy-3'-methoxy-[1,1'-biphenyl]-4-yl)allylidene)-2,3-dihydro-1H-inden-1-one]	424	574	0.1543	52.5 ± 3.1	66.7 ± 2		0.8	0.0052	397	551	428	583	0.0766						
CN(C)c1ccc(-c2cc(-c3ccnc(Br)c3)[nH]n2)cc1 [[^11C]MODAG-001]																		20 ± 10	0.6 ± 0.1
O=C1/C(=C\c2ccc(-c3ccc(CO)cc3)s2)Cc2ccccc21 [compound 37, (Z)-2-((5-(4-(Hydroxymethyl)phenyl)thiophen-2-yl)methylene)-2,3-dihydro-1H-inden-1-one]	446	556	0.1074	393 ± 64.4				0.0063	431	524									
O=C(O)c1ccc(-c2ccc(/C=C/C=C3C(=O)c4ccccc4C3=O)cc2)s1 [compound 35, (E)-5-(4-(3-(1,3-Dioxo-1,3-dihydro-2H-inden-2-ylidene)prop-1-en-1-yl)phenyl)thiophene-2-carboxylic acid]	437	595	0.2058	337 ± 11.7	74.2 ± 14.3	74.2 ± 14.3	4.5	0.0097	414	556	425	601	0.0878						
COc1ncc(-c2ccc(/C=C3/Cc4ccccc4C3=O)s2)c(OC)n1 [compound 42, (Z)-2-((5-(2,4-Dimethoxypyrimidin-5-yl)thiophen-2-yl)methylene)-2,3-dihydro-1H-inden-1-one]	478	581	0.1130	250 ± 37.1	92.9 ± 6.3	92.9 ± 6.3	2.7	0.0050	387	547	465	572	0.0596						
CN(C)c1ccc(/C=C/C=C2\Cc3ccccc3C2=O)cc1 [compound 9, (E)-2-((E)-3-(4-(Dimethylamino)phenyl)allylidene)-2,3-dihydro-1H-inden-1-one]	460	609	0.1465	157 ± 5	38.4 ± 1.3	38.4 ± 1.3	4.1	0.0059	450	589	462	610	0.0805						
COc1cc(/C=C/C=C2C(=O)c3ccccc3C2=O)ccc1O [compound 20, (E)-2-(3-(4-Hydroxy-3-methoxyphenyl)allylidene)-1H-indene-1,3(2H)-dione]	438	598	0.1419	154 ± 11.8	44.5 ± 6.1	44.5 ± 6.1	3.5	0.0061	402	572	440	603	0.0482						
CN(C)c1ccc(/C=C/C=C2\CCc3ccccc3C2=O)cc1 [compound 24, (E)-2-((E)-3-(4-(Dimethylamino)phenyl)allylidene)-3,4-dihydronaphthalen-1(2H)-one]	435	585	0.1377	165 ± 7.1	97.6 ± 5.7	97.6 ± 5.7	1.7	0.0063	397	565	452	582	0.0668						
CN(C)c1ncc(-c2ccc(/C=C3/Cc4ccc(O)cc4C3=O)s2)cn1 [compound 43, (Z)-2-((5-(2-(Dimethylamino)pyrimidin-5-yl)thiophen-2-yl)methylene)-6-hydroxy-2,3-dihydro-1H-inden-1-one]					236 ± 10.4				386	572									
O=C(O)c1ccc(-c2ccc(/C=C/C=C3\Cc4ccc(O)cc4C3=O)cc2)cc1 [compound 32, 4'-((E)-3-((E)-6-Hydroxy-1-oxo-1,3-dihydro-2H-inden-2-ylidene)prop-1-en-1-yl)-[1,1'-biphenyl]-4-carboxylic acid]	443	583	0.2498	491 ± 58.9		18.8 ± 4		0.0104	392	563	448	586	0.1125	579 ± 30.6	30.8	greater than 10 x			
CN(C)c1ccc(-c2ccc(/C=C3/Cc4ccccc4C3=O)s2)cc1 [compound 40, (Z)-2-((5-(4-(Dimethylamino)phenyl)thiophen-2-yl)methylene)-2,3-dihydro-1H-inden-1-one]					160 ± 7.1				413	597									
